Active and inactive are the calls of the source. The rule behind the calls is not given here.
Columns and labels:
CWR22R [1] = test: Inhibition of cell viability in ARV7-positive human 22Rv1 cells by Steady-Glo luciferase assay; type: functional, cell-based
PC-3 = test: Inhibition of cell viability in AR-independent human PC-3 cells by Steady-Glo luciferase assay; type: functional, cell-based
[2] = Drug uptake in C57BL6 mouse plasma at 25 mg/kg, po via gavage measured for 4 hrs by LC-MS/MS analysis; type: ADME, organism-based; conditions: in vivo
[3] = C0 in Sprague-Dawley rat at 1.8 mg/kg, iv measured for 24 hrs by LC-MS/MS analysis; type: ADME, organism-based; conditions: in vivo
[4] = Elimination rate constant in Sprague-Dawley rat at 1.8 mg/kg, iv measured for 24 hrs by LC-MS/MS analysis; type: ADME, organism-based; conditions: in vivo
[5] = Half life in Sprague-Dawley rat at 1.8 mg/kg, iv measured for 24 hrs by LC-MS/MS analysis; type: ADME, organism-based; conditions: in vivo
[6] = MRT (0 to t) in Sprague-Dawley rat at 1.8 mg/kg, iv measured for 24 hrs by LC-MS/MS analysis; type: ADME, organism-based; conditions: in vivo
[7] = MRT (0 to infinity) in Sprague-Dawley rat at 1.8 mg/kg, iv measured for 24 hrs by LC-MS/MS analysis; type: ADME, organism-based; conditions: in vivo
[8] = AUC (0 to t) in Sprague-Dawley rat at 1.8 mg/kg, iv measured for 24 hrs by LC-MS/MS analysis; type: ADME, organism-based; design: time 24 hrs, dose 1.8 mg/kg, route iv; conditions: in vivo
[9] = AUC (0 to infinity) in Sprague-Dawley rat at 1.8 mg/kg, iv measured for 24 hrs by LC-MS/MS analysis; type: ADME, organism-based; design: dose 1.8 mg/kg, time 24 hrs, route iv; conditions: in vivo
[10] = Clearance in Sprague-Dawley rat at 1.8 mg/kg, iv measured for 24 hrs by LC-MS/MS analysis; type: ADME, organism-based; conditions: in vivo
[11] = Volume of distribution at steady state in Sprague-Dawley rat at 1.8 mg/kg, iv measured for 24 hrs by LC-MS/MS analysis; type: ADME, organism-based; conditions: in vivo, read-out: Vdss
[12] = Elimination rate constant in Sprague-Dawley rat at 25 mg/kg, IG measured for 24 hrs by LC-MS/MS analysis; type: ADME, organism-based; conditions: in vivo, po
[13] = Half life in Sprague-Dawley rat at 25 mg/kg, IG measured for 24 hrs by LC-MS/MS analysis; type: ADME, organism-based; conditions: in vivo, po
[14] = Tmax in Sprague-Dawley rat at 25 mg/kg, IG measured for 24 hrs by LC-MS/MS analysis; type: ADME, organism-based; conditions: in vivo, po
[15] = Cmax in Sprague-Dawley rat at 25 mg/kg, IG measured for 24 hrs by LC-MS/MS analysis; type: ADME, organism-based; design: dose 25 mg/kg, time 24 hrs, route ig; conditions: in vivo, po
[16] = MRT (0 to t) in Sprague-Dawley rat at 25 mg/kg, IG measured for 24 hrs by LC-MS/MS analysis; type: ADME, organism-based; conditions: in vivo, po
[17] = MRT (0 to infinity) in Sprague-Dawley rat at 25 mg/kg, IG measured for 24 hrs by LC-MS/MS analysis; type: ADME, organism-based; conditions: in vivo, po
[18] = AUC (0 to t) in Sprague-Dawley rat at 25 mg/kg, IG measured for 24 hrs by LC-MS/MS analysis; type: ADME, organism-based; design: dose 25 mg/kg, time 24 hrs, route ig; conditions: in vivo, po
[19] = AUC (0 to infinity) in Sprague-Dawley rat at 25 mg/kg, IG measured for 24 hrs by LC-MS/MS analysis; type: ADME, organism-based; design: time 24 hrs, dose 25 mg/kg, route ig; conditions: in vivo, po
[20] = Oral bioavailability in Sprague-Dawley rat at 25 mg/kg measured for 24 hrs by LC-MS/MS analysis; type: ADME, organism-based; conditions: in vivo
[21] = target: T1, Androgen receptor (Homo sapiens) (UniProt P10275); test: Inhibition of androgen receptor transfected in human HEK293T cells incubated for 24 to 72 hrs by Western blot analysis; type: cell-based; conditions: dose 0.5-1 µM, time 24-72 hrs
T1 sequence (whole entry): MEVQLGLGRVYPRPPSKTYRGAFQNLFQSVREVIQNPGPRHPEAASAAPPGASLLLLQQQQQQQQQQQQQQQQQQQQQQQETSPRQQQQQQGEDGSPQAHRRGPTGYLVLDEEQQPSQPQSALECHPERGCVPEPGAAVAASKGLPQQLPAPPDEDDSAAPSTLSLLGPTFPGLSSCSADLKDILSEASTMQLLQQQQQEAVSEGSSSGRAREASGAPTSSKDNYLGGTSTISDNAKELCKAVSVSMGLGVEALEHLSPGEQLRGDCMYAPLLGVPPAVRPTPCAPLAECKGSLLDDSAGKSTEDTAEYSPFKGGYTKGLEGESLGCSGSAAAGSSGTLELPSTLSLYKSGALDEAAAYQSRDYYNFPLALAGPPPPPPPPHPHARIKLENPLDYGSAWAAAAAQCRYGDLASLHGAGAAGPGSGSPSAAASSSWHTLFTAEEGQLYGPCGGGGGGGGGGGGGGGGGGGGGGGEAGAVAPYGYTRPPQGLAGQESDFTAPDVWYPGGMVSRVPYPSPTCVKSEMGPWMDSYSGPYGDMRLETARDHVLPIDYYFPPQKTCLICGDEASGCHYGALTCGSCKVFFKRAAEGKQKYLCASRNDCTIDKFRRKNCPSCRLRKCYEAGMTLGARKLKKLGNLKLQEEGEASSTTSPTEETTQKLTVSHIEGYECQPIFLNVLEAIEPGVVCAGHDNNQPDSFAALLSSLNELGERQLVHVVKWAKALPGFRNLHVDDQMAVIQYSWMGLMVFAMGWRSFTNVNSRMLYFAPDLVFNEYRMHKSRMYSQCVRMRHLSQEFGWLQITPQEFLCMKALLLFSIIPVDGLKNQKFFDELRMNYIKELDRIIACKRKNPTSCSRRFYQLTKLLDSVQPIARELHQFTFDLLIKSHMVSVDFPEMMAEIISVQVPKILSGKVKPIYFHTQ

[22] = target: T1, Androgen receptor (Homo sapiens); test: Inhibition of androgen receptor transfected in human HEK293T cells at 0.5 to 1 uM by Western blot analysis; type: cell-based; conditions: dose 0.5-1 µM, time 24-72 hrs, TDE = time-dependent effect
HEK-293T = test: Downregulation of AR-v1 expression transfected in human HEK293T cells at 0.5 to 1 uM incubated for 24 to 72 hrs by Western blot analysis; type: functional, cell-based; conditions: dose 0.5-1 µM, time 24-72 hrs
LNCaP = test: Inhibition of cell viability in AR-dependent human LNCaP cells by Steady-Glo luciferase assay; type: functional, cell-based
LNCaP C4-2B = test: Inhibition of cell viability in AR-dependent human LNCaP C4-2B cells by Steady-Glo luciferase assay; type: functional, cell-based
DU-145 = test: Inhibition of cell viability in AR-independent human DU-145 cells by Steady-Glo luciferase assay; type: functional, cell-based
[23] = Inhibition of cell viability in human adipose stromal cells by CCK8 assay; type: toxicity, cell-based
[24] = target: T1, Androgen receptor (Homo sapiens); test: Inhibition of androgen receptor in human 22Rv1 cells assessed as decrease in HGF mRNA level at 1 uM incubated for 36 hrs by RNA sequencing analysis; type: cell-based
CWR22R [25] = test: Antitumor activity against human 22Rv1 cells xenografted in SCID C.B17 mouse assessed as tumor growth inhibition by measuring tumor volume at 50 mg/kg/day, IG measured for 21 days by caliper method; type: functional, organism-based; conditions: time 21.0 day
CWR22R [26] = test: Antitumor activity against human 22Rv1 cells xenografted in SCID C.B17 mouse assessed as tumor growth inhibition by measuring tumor weight at 50 mg/kg/day, IG measured for 21 days by caliper method; type: functional, organism-based; conditions: time 21.0 day
[27] = Toxicity in SCID C.B17 mouse xenografted with human 22Rv1 cells assessed as body weight loss at 50 mg/kg/day, IG measured for 21 days; type: organism-based, CWR22R; conditions: in vivo, po, 504 h, time 21 day
[28] = Distribution coefficient, logD of compound by chromatography; type: physicochemical; conditions: octanol/water
[29] = Metabolic stability in mouse liver microsomes assessed as half life; type: ADME, Microsome
[30] = Metabolic stability in mouse liver microsomes assessed as intrinsic clearance measured per mg protein; type: ADME, Microsome; conditions: read-out: CLH

## O=c1cnc(Cc2ccccc2)nn1Cc1ccc(Cl)cc1Cl
CWR22R [1]
  IC50: 0.18 µM
PC-3
  IC50: 1.48 µM
[2]
  Drug uptake: Active
[3]
  C0 at 24 h: 12600 ng/mL
[4]
  k el at 24 h: 2.5e-05 s⁻¹
[5]
  half-life: 8.02 h
[6]
  MRT last at 24 h: 5.05 h
[7]
  MRT inf: 7.65 h
[8]
  AUC(0-t) at 24 h: 14300 ng·h/mL
[9]
  AUC(0-inf): 15700 ng·h/mL
[10]
  clearance: 2.02 mL/min/kg
[11]
  Vd: 0.87 L/kg
[12]
  k el at 24 h: 4.17e-05 s⁻¹
[13]
  half-life: 4.59 h
[14]
  Tmax: 4 h
[15]
  Cmax: 1910 ng/mL
[16]
  MRT last at 24 h: 8.4 h
[17]
  MRT inf: 9.27 h
[18]
  AUC(0-t) at 24 h: 26500 ng·h/mL
[19]
  AUC(0-inf): 27500 ng·h/mL
[20]
  bioavailability: 12.6%
[21]
  inhibition: Dose-Dependent Effect
[22]
  inhibition: Tde
HEK-293T
  Activity: inactive
LNCaP
  IC50: 0.17 µM
LNCaP C4-2B
  IC50: 0.32 µM
DU-145
  IC50: 1.85 µM
[23]
  IC50: 3.33 µM
[24]
  inhibition: Active
CWR22R [25]
  TGI: Active
CWR22R [26]
  TGI: Active
[27]
  Activity: Non-Toxic

## O=c1cnc(Cc2ccccc2)nn1CC1CC1
CWR22R [1]
  IC50: 0.39 µM
PC-3
  IC50: 0.6 µM

## O=c1cnc(Cc2ccccc2)nn1Cc1ccccc1
CWR22R [1]
  IC50: 0.74 µM
PC-3
  IC50: 9.79 µM

## O=c1cnc(-c2ccccc2)nn1C1CCCC1
CWR22R [1]
  IC50: 0.49 µM
PC-3
  IC50: 10.1 µM
[28]
  chromatographic logD: 3.8
[29]
  half-life: 0.1 h
[30]
  microsomal CLint: 296 µL/min/mg

## COc1cccc(-c2ncc(=O)n(Cc3ccc(Cl)c(Cl)c3)n2)c1
CWR22R [1]
  IC50: 3.31 µM
PC-3
  IC50: > 10 µM

## CC(C)CCn1nc(-c2ccccc2)ncc1=O
CWR22R [1]
  IC50: 0.64 µM
PC-3
  IC50: 10.8 µM

## O=c1cnc(-c2ccccc2)nn1Cc1cccc(C(F)(F)F)c1
CWR22R [1]
  IC50: 0.22 µM
PC-3
  IC50: 5.28 µM
[2]
  Drug uptake: Not Active

## O=c1cnc(-c2cccc(Br)c2)nn1Cc1cccc(Cl)c1
CWR22R [1]
  IC50: 3.25 µM
PC-3
  IC50: 11.8 µM

## CC(C)n1nc(-c2ccccc2)ncc1=O
CWR22R [1]
  IC50: 0.92 µM
PC-3
  IC50: 32.5 µM

## O=c1cnc(-c2ccccc2)nn1-c1ccccc1
CWR22R [1]
  IC50: 2.19 µM
PC-3
  IC50: > 10 µM

## COc1cccc(-c2ncc(=O)n(Cc3ccc(Cl)cc3Cl)n2)c1
CWR22R [1]
  IC50: 0.15 µM
PC-3
  IC50: 0.43 µM

## O=c1cnc(Cc2ccccc2)nn1Cc1cccc(C(F)(F)F)c1
CWR22R [1]
  IC50: 0.13 µM
PC-3
  IC50: 2.52 µM
[2]
  Drug uptake: Not Active

## O=c1cnc(-c2ccccc2)nn1Cc1ccc(Cl)cc1
CWR22R [1]
  IC50: 0.6 µM
PC-3
  IC50: 10.9 µM
[2]
  Drug uptake: Not Active

## O=c1cnc(Cc2ccccc2)nn1CC1CCCCC1
CWR22R [1]
  IC50: 3.23 µM
PC-3
  IC50: 2.94 µM

## O=c1cnc(-c2cccc(Cl)c2)nn1Cc1cccc(Cl)c1
CWR22R [1]
  IC50: 2.66 µM
PC-3
  IC50: 11.4 µM

## COc1ccc(Cn2nc(-c3cccc(OC)c3)ncc2=O)cc1
CWR22R [1]
  IC50: 3.12 µM
PC-3
  IC50: > 10 µM

## O=c1cnc(-c2ccccc2)nn1Cc1ccccc1Cl
CWR22R [1]
  IC50: 0.27 µM
PC-3
  IC50: 2.55 µM
[28]
  chromatographic logD: 4.3
[29]
  half-life: 0.167 h
[30]
  microsomal CLint: 181 µL/min/mg

## O=c1cnc(-c2ccccc2)nn1Cc1ccc(Cl)nc1
CWR22R [1]
  IC50: 0.09 µM
PC-3
  IC50: 3.23 µM
[2]
  Drug uptake: Not Active

## Cc1nc(Cn2nc(-c3ccccc3)ncc2=O)cs1
CWR22R [1]
  IC50: 0.69 µM
PC-3
  IC50: 4.37 µM
[2]
  Drug uptake: Not Active

## O=c1cnc(Cc2ccccc2)nn1Cc1ccc(Cl)c(Cl)c1
CWR22R [1]
  IC50: 0.2 µM
PC-3
  IC50: 2.14 µM
[2]
  Drug uptake: Not Active

## O=c1cnc(-c2ccccc2)nn1-c1ccc(Cl)cc1
CWR22R [1]
  IC50: 1.4 µM
PC-3
  IC50: 3.34 µM

## N#CCCCn1nc(-c2ccccc2)ncc1=O
CWR22R [1]
  IC50: 3.03 µM
PC-3
  IC50: 42.9 µM

Reference: ChEMBL document CHEMBL5335810, “1,3-Disubstituted-1,2,4-triazin-6-ones with potent activity against androgen receptor-dependent prostate cancer cells” (Bioorg Med Chem, 2024)
